Laboratory results taken from US20090170773A1, “NOVEL USE OF G-PROTEIN-CONJUGATED RECEPTOR AND LIGAND THEREOF” (RIKEN, priority 2006, published 2009).

Assays:
RAIG2 = molecular target: T1, RAIG2 (Homo sapiens, UniProt Q9NZH0); assay: Insulin secretion in MIN6 cells having RAIG2 expressed forcibly (ELISA); type: cell-based, mouse; details: 0.6 mM 1,5-AG added to 2.8 mM glucose, FIG. 2a
T1 construct: expressed in transfected cells; host or cells: mouse insulinoma MIN6 cells, transient transfection with pIRES2-EGFP (CLONTECH) vector
T1 sequence (Q9NZH0 29-403): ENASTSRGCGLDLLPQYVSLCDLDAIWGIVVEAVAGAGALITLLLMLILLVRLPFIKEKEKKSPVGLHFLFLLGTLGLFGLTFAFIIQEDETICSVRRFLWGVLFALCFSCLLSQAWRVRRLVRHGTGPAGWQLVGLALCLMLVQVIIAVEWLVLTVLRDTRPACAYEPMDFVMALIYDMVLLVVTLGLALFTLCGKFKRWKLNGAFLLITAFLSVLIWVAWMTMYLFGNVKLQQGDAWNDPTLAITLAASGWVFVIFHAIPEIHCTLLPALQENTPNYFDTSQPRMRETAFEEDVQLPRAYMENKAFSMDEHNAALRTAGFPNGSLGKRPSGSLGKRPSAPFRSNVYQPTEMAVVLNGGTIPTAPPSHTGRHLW
Method: (§1) Mouse insulinoma MIN6 cells (supplied by Dr. Junichi Miyazaki at the Division of Stem Cell Regulation Research, Department of Molecular Therapeutics, G6 Division of Pathophysiology and Therapeutics, Osaka University Graduate School of Medicine) were cultured in a 24-well plate containing a DMEM comprising 15% fetal calf serum (inactivated by treatment at 56° C. for 30 minutes), 5 μl/l β-mercaptoethanol and 4.5 g/l glucose, in an atmosphere of 5% CO2/95% air, at 37° C. and low density. cDNAs of RAIG2 and RAIG3 were obtained from a human brain or liver cDNA library by a conventional method of PCR. This was inserted into pIRES2-EGFP (CLONTECH). After 24 hours, the above-described cells were transfected with an expression vector containing the RAIG2 or RAIG3 cDNA. The transfection was performed using Lipofectamin 2000 (Invitrogen), as directed in the manufacturer's manual. After 48 hours of further cultivation, the cells were retained in a KRBB solution [129 mM NaCl, 4.8 mM KCl, 1.2 mM MgSO4, 1.2 mM KH2PO4, 4.8 mM NaHCO3, 10 mM HEPES, 2.5 mM CaCl2, 0.2% bovine serum albumin (pH adjusted to 7.4)] containing 2.8 mM glucose at 37° C. for 15 minutes, and then washed. […] Each 10 μl portion of the culture supernatant was taken, and the insulin content was measured by ELISA.

RAIG3 = molecular target: T2, RAIG3 (Homo sapiens, UniProt Q9NQ84); assay: Insulin secretion in MIN6 cells having RAIG3 expressed forcibly (ELISA); type: cell-based; details: 0.6 mM 1,5-AG added to 2.8 mM glucose, FIG. 2b
T2 construct: expressed in transfected cells; host or cells: mouse insulinoma MIN6 cells, transient transfection with pIRES2-EGFP (CLONTECH) vector
T2 sequence (Q9NQ84 1-453 isoform Q9NQ84-2): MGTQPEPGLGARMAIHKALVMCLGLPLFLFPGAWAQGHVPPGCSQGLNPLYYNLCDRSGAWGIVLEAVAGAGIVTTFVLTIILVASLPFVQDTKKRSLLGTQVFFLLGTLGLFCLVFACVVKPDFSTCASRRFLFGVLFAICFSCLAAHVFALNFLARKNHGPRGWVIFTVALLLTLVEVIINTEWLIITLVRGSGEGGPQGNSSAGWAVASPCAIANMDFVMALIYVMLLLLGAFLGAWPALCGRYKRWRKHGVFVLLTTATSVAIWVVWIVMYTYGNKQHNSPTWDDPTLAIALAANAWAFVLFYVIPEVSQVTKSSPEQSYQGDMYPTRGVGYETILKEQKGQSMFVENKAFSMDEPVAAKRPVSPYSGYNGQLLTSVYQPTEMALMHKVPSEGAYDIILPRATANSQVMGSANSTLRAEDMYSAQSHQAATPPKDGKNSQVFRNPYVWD
Method: as §1

OC[C@H]1OC[C@H](O)[C@@H](O)[C@@H]1O [1,5-AG, 1,5-anhydroglucitol]
insulin release (RAIG2): insulin release equivalent to that with 20 mM glucose
insulin release (RAIG3): insulin release equivalent to that with 20 mM glucose
